{
  "source": "BindingDB's records for doi:10.7270/Q22Z140X",
  "about": "(Burnham Center For Chemical Genomics, 2010)",
  "note": "pIC50: −log10 of the molar value.",
  "data": [
    {"molecular_target": "T1, NACHT, LRR and PYD domains-containing protein 1 (Homo sapiens, UniProt Q9C000)", "T1 sequence (Q9C000 whole entry)": "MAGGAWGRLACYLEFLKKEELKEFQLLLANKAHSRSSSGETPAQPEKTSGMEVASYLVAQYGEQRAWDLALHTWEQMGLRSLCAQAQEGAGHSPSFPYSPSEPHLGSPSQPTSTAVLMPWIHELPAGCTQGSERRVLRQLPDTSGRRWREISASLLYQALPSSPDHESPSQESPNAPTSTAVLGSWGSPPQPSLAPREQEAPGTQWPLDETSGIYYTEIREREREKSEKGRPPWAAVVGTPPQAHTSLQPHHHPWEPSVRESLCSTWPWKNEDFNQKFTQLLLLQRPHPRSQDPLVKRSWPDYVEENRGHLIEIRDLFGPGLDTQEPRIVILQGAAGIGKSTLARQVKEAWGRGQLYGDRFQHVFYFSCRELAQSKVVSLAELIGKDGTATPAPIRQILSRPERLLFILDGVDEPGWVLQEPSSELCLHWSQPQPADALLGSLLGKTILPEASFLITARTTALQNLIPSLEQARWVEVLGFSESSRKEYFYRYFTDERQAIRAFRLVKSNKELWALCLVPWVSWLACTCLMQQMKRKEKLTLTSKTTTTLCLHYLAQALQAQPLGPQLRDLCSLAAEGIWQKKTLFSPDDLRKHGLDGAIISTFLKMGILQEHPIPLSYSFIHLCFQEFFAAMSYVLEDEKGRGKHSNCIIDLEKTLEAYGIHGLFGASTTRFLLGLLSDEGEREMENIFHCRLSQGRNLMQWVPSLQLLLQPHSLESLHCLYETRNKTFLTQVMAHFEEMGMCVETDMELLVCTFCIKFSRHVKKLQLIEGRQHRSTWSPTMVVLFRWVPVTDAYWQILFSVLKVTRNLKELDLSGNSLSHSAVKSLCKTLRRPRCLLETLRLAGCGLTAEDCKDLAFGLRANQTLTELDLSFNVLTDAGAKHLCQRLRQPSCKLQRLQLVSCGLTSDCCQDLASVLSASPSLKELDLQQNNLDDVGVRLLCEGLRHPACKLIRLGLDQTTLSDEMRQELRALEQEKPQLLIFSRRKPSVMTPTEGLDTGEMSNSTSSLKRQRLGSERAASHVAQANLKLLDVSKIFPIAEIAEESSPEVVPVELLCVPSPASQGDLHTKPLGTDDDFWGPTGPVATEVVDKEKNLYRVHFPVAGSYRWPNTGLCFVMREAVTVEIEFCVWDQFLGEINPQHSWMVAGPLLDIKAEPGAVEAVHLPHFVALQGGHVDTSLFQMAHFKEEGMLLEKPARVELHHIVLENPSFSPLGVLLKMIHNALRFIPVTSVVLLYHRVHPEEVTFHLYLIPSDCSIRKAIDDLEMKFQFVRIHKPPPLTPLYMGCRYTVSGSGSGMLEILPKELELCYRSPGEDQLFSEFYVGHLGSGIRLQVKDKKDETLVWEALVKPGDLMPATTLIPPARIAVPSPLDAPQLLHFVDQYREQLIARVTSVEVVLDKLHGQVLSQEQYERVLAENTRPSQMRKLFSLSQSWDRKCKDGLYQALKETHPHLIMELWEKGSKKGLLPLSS", "test": "NALP1 inhibitors in yeast, dose response, luminescent (AID 488860)", "values": [
      {"compound": "Oc1cc(Sc2nnnn2-c2ccccc2)c(O)n1-c1cccc(Cl)c1", "pIC50": 5.23},
      {"compound": "Cc1ccc(-n2c(O)cc(Sc3ccccc3C(=O)O)c2O)cc1", "pIC50": 4.46},
      {"compound": "COc1ccccc1-n1c(O)c2c(c1O)CC(c1ccccc1)CC2", "note": "(stereo not drawn)", "pIC50": "< 4.00"}
    ]}
  ]
}
